“And” between values parts separate entries of the source, which are not always exact repeats. Equal values may be shown once.
System: CTL cells (CD45^+CD8^+ T cells) in tumor-infiltrating lymphocytes
Assay: Example 2: flow cytometry, percentage of CTL cells in TILs
Format: in vivo, Mus musculus
Description: Mice were sacrificed by CO2 euthanasia at the end of the study duration, and the connective tissue around tumor was resected. The tumor samples were then weighed and cut equally into three sections if the tumor weight over 400 mg. The tumor tissue was prepared for the isolation of tumor-infiltrating lymphocytes (TILs). The rest of one section was fixed in 10% formaldehyde and embedded in paraffin; the other was stored at a temperature below −70° C.
The tumor samples were dissected into smaller fragments using scalpels and then digested with a cocktail of collagenase, DNase I, and Hyaluronidase (Collagenase #C5138, DNase I #D5025, Hyaluronidase #H6254, SigmaAldrich) for at least 2 hours.
Cells were stained with the fluorescently conjugated surface antibodies and incubated for 30 minutes at 4° C., and then resuspended in staining buffer for flow cytometric analysis. Flow cytometry was done using a Navios EX Flow Cytometer (Beckman Coulter). Data were analyzed using the Kaluza Analysis Software (Beckman Coulter).

Which “CTL cells (CD45^+CD8^+ T cells) in TILs” value (Example 2, mean±SEM, OBI-3424 1 mg/kg, alone (G3) or with anti-hPD-1 (G6), vehicle 15.53±5.66%) does the source give for C[C@H](OP(=O)(N1CC1)N1CC1)c1ccc([N+](=O)[O-])c(Oc2cccc(C(=O)N(C)C)c2)c1 [OBI-3424, (S)-1-(3-(3-N,N-dimethylaminocarbonyl)phenoxyl-4-mtrophenyl)-1-ethyl-N,N′-bis(ethylene)phosphoramidate] here?
The value was 33.50±3.38%.

What about the “CD25^+ CTL cells (CD45^+ CD8^+CD25^+) Cell count (×10^5)” value (“CD25^+ CTL cells … (×10^5)” below) (G2: 0.3 mg/kg, group mean) of the same compound?
The value was 2.93 ×10^5.

And the “CD25^+ CTL cells (CD45^+CD8^+ CD25^+) CTL Gated %” value (G2: 0.3 mg/kg, group mean)?
Its value is 5.60%.

And the “CD25^+ CTL cells (CD45^+CD8^+ CD25^+) Total %” value (G2: 0.3 mg/kg, group mean)?
The value was 1.33%.

What about the “CD69^+ CTL cells (CD45^+ CD8^+CD69^+) CTL Gated %” value (G2: 0.3 mg/kg, group mean) of the same compound?
The value was 69.71%.

What about the “CD69^+ CTL cells (CD45^+ CD8^+CD69^+) Cell count (×10^5)” value (from here on “CD69^+ CTL cells … (×10^5)”) (G2: 0.3 mg/kg, group mean) of the same compound?
The value was 40.97 ×10^5.

And the “CD69^+ CTL cells (CD45^+ CD8^+CD69^+) Total %” value (G2: 0.3 mg/kg, group mean)?
Its value is 20.23%.

And the “CTL cells (CD45^+CD8^+) CD45^+ Gated %” value (G2: 0.3 mg/kg, group mean)?
The value was 60.54%.

What about the “CTL cells (CD45^+CD8^+) Cell count (×10^5)” value (G2: 0.3 mg/kg, group mean) of the same compound?
The value was 55.19 ×10^5.

What about the “CTL cells (CD45^+CD8^+) Total %” value (G2: 0.3 mg/kg, group mean) of the same compound?
The value was 26.12%.

And the “Granzyme B^+ CTL cells (CD45^+ CD8^+GrB+) CTL Gated %” value (G2: 0.3 mg/kg, group mean)?
The value was 90.76%.

And the “Granzyme B^+ CTL cells (CD45^+ CD8^+GrB+) Cell count (×10^5)” value (shortened to “Granzyme B^+ CTL cells … (×10^5)”) (G2: 0.3 mg/kg, group mean)?
The value was 61.54 ×10^5.

What about the “Granzyme B^+ CTL cells (CD45^+ CD8^+GrB+) Total %” value (G2: 0.3 mg/kg, group mean) of the same compound?
Its value is 26.31%.

And the “IFN-γ^+ CTL cells (CD45^+ CD8^+ IFN-γ^+) CTL Gated %” value (G2: 0.3 mg/kg, group mean)?
The value was 0.89%.

What about the “IFN-γ^+ CTL cells (CD45^+ CD8^+ IFN-γ^+) Cell count (×10^5)” value (from here on “IFN-γ^+ CTL cells … (×10^5)”) (G2: 0.3 mg/kg, group mean) of the same compound?
The value was 0.47 ×10^5.

And the “IFN-γ^+ CTL cells (CD45^+ CD8^+ IFN-γ^+) Total %” value (G2: 0.3 mg/kg, group mean)?
The value was 0.20%.

And the “PD-1^+ CTL cells (CD45^+CD8^+ PD-1^+) CTL Gated %” value (G2: 0.3 mg/kg, group mean)?
Its value is 75.96%.

What about the “PD-1^+ CTL cells (CD45^+CD8^+ PD-1^+) Cell count (×10^5)” value (“PD-1^+ CTL cells … (×10^5)” below) (G2: 0.3 mg/kg, group mean) of the same compound?
Its value is 42.52 ×10^5.

And the “PD-1^+ CTL cells (CD45^+CD8^+ PD-1^+) Total %” value (G2: 0.3 mg/kg, group mean)?
Its value is 18.42%.

And the “CD25^+ CTL cells … (×10^5)” value (G2: 0.3 mg/kg, individual mice)?
The value was 1.91 ×10^5 and 3.89 ×10^5 and 7.72 ×10^5 and 0.35 ×10^5 and 3.13 ×10^5 and 0.58 ×10^5.

And the “CD25^+ CTL cells (CD45^+CD8^+ CD25^+) CTL Gated %” value (G2: 0.3 mg/kg, individual mice)?
The value was 11.79% and 5.81% and 3.87% and 3.93% and 4.86% and 3.31%.

What about the “CD25^+ CTL cells (CD45^+CD8^+ CD25^+) Total %” value (G2: 0.3 mg/kg, individual mice) of the same compound?
The value was 0.98% and 1.90% and 1.43% and 1.62% and 1.27% and 0.80%.

What about the “CD69^+ CTL cells (CD45^+ CD8^+CD69^+) CTL Gated %” value (G2: 0.3 mg/kg, individual mice) of the same compound?
Its value is 62.46% and 73.01% and 61.79% and 85.14% and 68.69% and 67.19%.

And the “CD69^+ CTL cells … (×10^5)” value (G2: 0.3 mg/kg, individual mice)?
The value was 10.13 ×10^5 and 48.79 ×10^5 and 123.34 ×10^5 and 7.53 ×10^5 and 44.17 ×10^5 and 11.85 ×10^5.

What about the “CD69^+ CTL cells (CD45^+ CD8^+CD69^+) Total %” value (G2: 0.3 mg/kg, individual mice) of the same compound?
The value was 5.21% and 23.86% and 22.84% and 35.19% and 17.92% and 16.34%.

What about the “CTL cells (CD45^+CD8^+) CD45^+ Gated %” value (G2: 0.3 mg/kg, individual mice) of the same compound?
The value was 43.92% and 72.25% and 73.64% and 66.97% and 60.34% and 46.12%.

And the “CTL cells (CD45^+CD8^+) Cell count (×10^5)” value (G2: 0.3 mg/kg, individual mice)?
The value was 15.97 ×10^5 and 54.79 ×10^5 and 171.72 ×10^5 and 9.75 ×10^5 and 66.26 ×10^5 and 12.67 ×10^5.

What about the “CTL cells (CD45^+CD8^+) Total %” value (G2: 0.3 mg/kg, individual mice) of the same compound?
Its value is 8.21% and 26.79% and 31.80% and 45.54% and 26.88% and 17.47%.

What about the “Granzyme B^+ CTL cells (CD45^+ CD8^+GrB+) CTL Gated %” value (G2: 0.3 mg/kg, individual mice) of the same compound?
Its value is 66.16% and 97.44% and 95.50% and 85.88% and 99.84% and 99.74%.

What about the “Granzyme B^+ CTL cells … (×10^5)” value (G2: 0.3 mg/kg, individual mice) of the same compound?
The value was 11.61 ×10^5 and 69.08 ×10^5 and 196.18 ×10^5 and 6.59 ×10^5 and 69.09 ×10^5 and 16.66 ×10^5.

And the “Granzyme B^+ CTL cells (CD45^+ CD8^+GrB+) Total %” value (G2: 0.3 mg/kg, individual mice)?
Its value is 5.97% and 33.78% and 36.33% and 30.78% and 28.03% and 22.98%.

What about the “IFN-γ^+ CTL cells (CD45^+ CD8^+ IFN-γ^+) CTL Gated %” value (G2: 0.3 mg/kg, individual mice) of the same compound?
The value was 2.04% and 0.66% and 0.54% and 0.36% and 1.10% and 0.64%.

And the “IFN-γ^+ CTL cells … (×10^5)” value (G2: 0.3 mg/kg, individual mice)?
The value was 0.35 ×10^5 and 0.47 ×10^5 and 1.08 ×10^5 and 0.03 ×10^5 and 0.76 ×10^5 and 0.11 ×10^5.

What about the “IFN-γ^+ CTL cells (CD45^+ CD8^+ IFN-γ^+) Total %” value (G2: 0.3 mg/kg, individual mice) of the same compound?
The value was 0.18% and 0.23% and 0.20% and 0.13% and 0.31% and 0.15%.

What about the “PD-1^+ CTL cells (CD45^+CD8^+ PD-1^+) CTL Gated %” value (G2: 0.3 mg/kg, individual mice) of the same compound?
The value was 95.86% and 68.60% and 72.47% and 49.67% and 96.18% and 73.00%.

And the “PD-1^+ CTL cells … (×10^5)” value (G2: 0.3 mg/kg, individual mice)?
Its value is 15.31 ×10^5 and 37.59 ×10^5 and 124.42 ×10^5 and 4.84 ×10^5 and 63.74 ×10^5 and 9.24 ×10^5.

What about the “PD-1^+ CTL cells (CD45^+CD8^+ PD-1^+) Total %” value (G2: 0.3 mg/kg, individual mice) of the same compound?
The value was 7.87% and 18.38% and 23.04% and 22.62% and 25.86% and 12.75%.

And the “CD25^+ CTL cells … (×10^5)” value (G3: 1 mg/kg, group mean)?
The value was 1.33 ×10^5.

And the “CD25^+ CTL cells (CD45^+CD8^+ CD25^+) CTL Gated %” value (G3: 1 mg/kg, group mean)?
Its value is 5.25%.

And the “CD25^+ CTL cells (CD45^+CD8^+ CD25^+) Total %” value (G3: 1 mg/kg, group mean)?
The value was 1.71%.

What about the “CD69^+ CTL cells (CD45^+ CD8^+CD69^+) CTL Gated %” value (G3: 1 mg/kg, group mean) of the same compound?
Its value is 71.92%.

And the “CD69^+ CTL cells … (×10^5)” value (G3: 1 mg/kg, group mean)?
Its value is 18.65 ×10^5.

And the “CD69^+ CTL cells (CD45^+ CD8^+CD69^+) Total %” value (G3: 1 mg/kg, group mean)?
Its value is 25.02%.

What about the “CTL cells (CD45^+CD8^+) CD45^+ Gated %” value (G3: 1 mg/kg, group mean) of the same compound?
Its value is 55.81%.

What about the “CTL cells (CD45^+CD8^+) Cell count (×10^5)” value (G3: 1 mg/kg, group mean) of the same compound?
Its value is 25.42 ×10^5.

What about the “CTL cells (CD45^+CD8^+) Total %” value (G3: 1 mg/kg, group mean) of the same compound?
Its value is 33.50%.

What about the “Granzyme B^+ CTL cells (CD45^+ CD8^+GrB+) CTL Gated %” value (G3: 1 mg/kg, group mean) of the same compound?
Its value is 88.17%.

And the “Granzyme B^+ CTL cells … (×10^5)” value (G3: 1 mg/kg, group mean)?
The value was 23.13 ×10^5.

What about the “Granzyme B^+ CTL cells (CD45^+ CD8^+GrB+) Total %” value (G3: 1 mg/kg, group mean) of the same compound?
Its value is 30.40%.

And the “IFN-γ^+ CTL cells (CD45^+ CD8^+ IFN-γ^+) CTL Gated %” value (G3: 1 mg/kg, group mean)?
The value was 0.63%.

What about the “IFN-γ^+ CTL cells … (×10^5)” value (G3: 1 mg/kg, group mean) of the same compound?
The value was 0.15 ×10^5.

And the “IFN-γ^+ CTL cells (CD45^+ CD8^+ IFN-γ^+) Total %” value (G3: 1 mg/kg, group mean)?
Its value is 0.21%.

What about the “PD-1^+ CTL cells (CD45^+CD8^+ PD-1^+) CTL Gated %” value (G3: 1 mg/kg, group mean) of the same compound?
Its value is 75.93%.

And the “PD-1^+ CTL cells … (×10^5)” value (G3: 1 mg/kg, group mean)?
Its value is 19.17 ×10^5.
